ChEMBL document CHEMBL1130094, “Structure-activity relationships for a novel series of pyrido[2,3-d]pyrimidine tyrosine kinase inhibitors” (J Med Chem, 1997)

Experiments:
[1] = molecular target: Insulin receptor (Homo sapiens, UniProt P06213); assay: Inhibition of insulin receptor (InsR) tyrosine kinase
[2] = molecular target: T1, Epidermal growth factor receptor (Homo sapiens, UniProt P00533); assay: Inhibition of Epidermal growth factor receptor (EGFr) tyrosine kinase
[3] = molecular target: T2, Platelet-derived growth factor receptor (PDGFr) (Rattus norvegicus, UniProt P20786+Q05030); assay: Inhibition of Platelet-derived growth factor receptor (PDGFr) tyrosine kinase in rat aortic vascular smooth muscle cells (RAVSMCs).
[4] = molecular target: T3, Fibroblast growth factor receptor (Homo sapiens, UniProt P22607+P11362+P22455+P21802); assay: Inhibition of Fibroblast growth factor receptor (FGFr) tyrosine kinase; assay type: protein assay
[5] = molecular target: Proto-oncogene tyrosine-protein kinase Src (Homo sapiens, UniProt P12931); assay: Inhibition of C-src tyrosine kinase
Proto-oncogene tyrosine-protein kinase Src, sequence (P12931 2-536 limits assumed): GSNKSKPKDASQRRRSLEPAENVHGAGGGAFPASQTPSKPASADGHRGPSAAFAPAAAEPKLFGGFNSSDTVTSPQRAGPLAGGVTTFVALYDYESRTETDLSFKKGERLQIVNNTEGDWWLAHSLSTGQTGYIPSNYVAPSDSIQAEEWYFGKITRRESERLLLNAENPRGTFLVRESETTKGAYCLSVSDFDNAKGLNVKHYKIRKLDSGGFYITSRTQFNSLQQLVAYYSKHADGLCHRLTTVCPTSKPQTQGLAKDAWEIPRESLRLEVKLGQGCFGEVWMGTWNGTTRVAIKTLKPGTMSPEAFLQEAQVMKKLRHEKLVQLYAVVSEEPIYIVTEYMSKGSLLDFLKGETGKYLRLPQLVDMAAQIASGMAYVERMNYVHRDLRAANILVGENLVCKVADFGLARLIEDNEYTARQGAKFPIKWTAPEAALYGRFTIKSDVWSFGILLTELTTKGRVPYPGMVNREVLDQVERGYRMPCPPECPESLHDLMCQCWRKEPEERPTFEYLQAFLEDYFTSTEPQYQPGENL

[6] = molecular target: T2, Platelet-derived growth factor receptor (PDGFr); assay: Inhibition of platelet derived growth factor (PDGF) stimulated PDGF-receptor autophosphorylation in rat aortic vascular smooth muscle cells (RAVSMCs)
[7] = molecular target: T3, Fibroblast growth factor receptor; assay: Inhibition of fibroblast growth factor receptor (FGFr) tyrosine kinase; assay type: protein assay
[8] = molecular target: T1, Epidermal growth factor receptor; assay: Inhibition of epidermal growth factor receptor (EGFr) tyrosine kinase
[9] = Inhibition of vascular smooth muscle cell (VSMC) proliferation at day 8; assay type: functional; settings: Rattus norvegicus, 192 h
[10] = The half life in rat plasma after intravenous administration; assay type: ADME, organism-based

T1 sequence (P00533 whole entry): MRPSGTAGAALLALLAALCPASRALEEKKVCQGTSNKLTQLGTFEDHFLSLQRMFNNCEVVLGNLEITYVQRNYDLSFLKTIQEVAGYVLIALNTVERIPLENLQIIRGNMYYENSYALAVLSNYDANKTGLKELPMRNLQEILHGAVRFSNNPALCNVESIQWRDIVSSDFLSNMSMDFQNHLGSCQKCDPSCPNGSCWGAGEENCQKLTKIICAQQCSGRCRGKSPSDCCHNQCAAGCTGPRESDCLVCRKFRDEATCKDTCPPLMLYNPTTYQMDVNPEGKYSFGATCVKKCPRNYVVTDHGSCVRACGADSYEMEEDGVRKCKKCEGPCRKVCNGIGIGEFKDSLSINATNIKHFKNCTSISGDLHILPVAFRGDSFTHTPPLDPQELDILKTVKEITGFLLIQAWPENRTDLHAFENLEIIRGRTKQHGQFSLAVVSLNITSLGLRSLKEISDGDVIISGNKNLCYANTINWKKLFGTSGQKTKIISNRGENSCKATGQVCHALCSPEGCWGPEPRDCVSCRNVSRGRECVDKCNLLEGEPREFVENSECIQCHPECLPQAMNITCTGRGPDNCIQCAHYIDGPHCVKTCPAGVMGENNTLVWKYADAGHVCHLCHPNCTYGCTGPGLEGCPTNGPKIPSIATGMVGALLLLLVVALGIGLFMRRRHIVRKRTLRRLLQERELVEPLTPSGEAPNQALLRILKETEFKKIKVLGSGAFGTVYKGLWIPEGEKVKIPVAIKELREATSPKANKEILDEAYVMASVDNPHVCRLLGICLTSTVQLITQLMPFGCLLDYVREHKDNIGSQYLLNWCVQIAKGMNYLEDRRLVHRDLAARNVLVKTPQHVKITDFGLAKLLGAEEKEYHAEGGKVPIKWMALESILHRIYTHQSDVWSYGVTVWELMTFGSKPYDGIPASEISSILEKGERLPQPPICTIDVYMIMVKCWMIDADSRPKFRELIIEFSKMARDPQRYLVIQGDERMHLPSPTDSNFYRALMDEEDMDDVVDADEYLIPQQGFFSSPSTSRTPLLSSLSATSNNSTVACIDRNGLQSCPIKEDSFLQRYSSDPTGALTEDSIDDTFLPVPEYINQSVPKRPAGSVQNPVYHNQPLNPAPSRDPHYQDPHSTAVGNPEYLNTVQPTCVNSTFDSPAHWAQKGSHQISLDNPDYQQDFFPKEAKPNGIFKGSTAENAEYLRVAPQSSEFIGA
Insulin receptor, sequence (P06213 28-758 limits assumed): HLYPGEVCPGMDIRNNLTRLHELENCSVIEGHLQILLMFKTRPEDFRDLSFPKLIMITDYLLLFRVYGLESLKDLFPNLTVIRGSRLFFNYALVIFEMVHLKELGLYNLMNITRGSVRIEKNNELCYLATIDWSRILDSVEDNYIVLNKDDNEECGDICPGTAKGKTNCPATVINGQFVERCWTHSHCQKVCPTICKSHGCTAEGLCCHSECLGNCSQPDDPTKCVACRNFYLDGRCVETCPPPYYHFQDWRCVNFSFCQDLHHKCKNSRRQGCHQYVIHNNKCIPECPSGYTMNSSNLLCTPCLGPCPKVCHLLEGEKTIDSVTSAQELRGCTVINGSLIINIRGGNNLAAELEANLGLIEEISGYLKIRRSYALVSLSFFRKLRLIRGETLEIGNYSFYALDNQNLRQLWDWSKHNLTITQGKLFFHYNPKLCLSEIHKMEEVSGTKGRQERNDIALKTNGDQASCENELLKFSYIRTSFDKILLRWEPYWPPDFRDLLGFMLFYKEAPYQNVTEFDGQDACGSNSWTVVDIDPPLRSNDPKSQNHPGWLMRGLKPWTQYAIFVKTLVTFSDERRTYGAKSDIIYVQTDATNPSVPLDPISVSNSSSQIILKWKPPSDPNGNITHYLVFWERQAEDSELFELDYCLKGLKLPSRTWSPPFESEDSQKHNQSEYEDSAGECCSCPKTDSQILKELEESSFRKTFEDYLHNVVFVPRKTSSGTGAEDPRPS
Insulin receptor, sequence (P06213 763-1382 limits assumed): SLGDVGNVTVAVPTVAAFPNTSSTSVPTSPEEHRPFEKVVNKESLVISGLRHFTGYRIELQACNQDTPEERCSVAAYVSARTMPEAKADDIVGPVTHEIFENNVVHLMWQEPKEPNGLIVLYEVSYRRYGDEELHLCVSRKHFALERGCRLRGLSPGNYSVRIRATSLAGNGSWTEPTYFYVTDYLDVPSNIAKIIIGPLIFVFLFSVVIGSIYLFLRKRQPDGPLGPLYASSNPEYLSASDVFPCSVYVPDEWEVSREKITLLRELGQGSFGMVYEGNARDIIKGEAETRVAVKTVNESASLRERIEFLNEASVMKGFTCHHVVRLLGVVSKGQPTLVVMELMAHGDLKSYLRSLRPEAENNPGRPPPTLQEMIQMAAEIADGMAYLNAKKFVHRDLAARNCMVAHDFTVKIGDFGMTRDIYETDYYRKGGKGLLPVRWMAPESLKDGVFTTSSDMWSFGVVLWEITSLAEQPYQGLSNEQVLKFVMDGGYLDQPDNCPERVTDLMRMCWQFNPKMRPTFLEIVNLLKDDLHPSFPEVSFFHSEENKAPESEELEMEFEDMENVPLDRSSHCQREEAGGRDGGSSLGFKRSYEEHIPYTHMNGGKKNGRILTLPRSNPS

SMILES: Cc1cc(C)c(C)c(-c2cc3cnc(NCCCN4CCN(C)CC4)nc3nc2NC(=O)NC(C)(C)C)c1C
- IC50 [1]: > 50 µM
- IC50 [2]: 7 µM
- IC50 [3]: > 50 µM
- IC50 [4]: 0.14 µM
- IC50 [5]: 2.2 µM
- IC50 [6]: 4.3 µM

SMILES: Cc1cccc(C)c1-c1cc2cnc(N)nc2nc1NC(=O)NC(C)(C)C
- IC50 [1]: > 50 µM
- IC50 [2]: 0.61 µM
- IC50 [4]: 0.4 µM

SMILES: COc1cc(OC)cc(-c2cc3cnc(N)nc3nc2NC(=O)NC(C)(C)C)c1
- IC50 [4]: 0.06 µM

SMILES: Cc1cc(C)c(C)c(-c2cc3cnc(N)nc3nc2NC(=O)NC(C)(C)C)c1C
- IC50 [1]: > 50 µM
- IC50 [3]: > 50 µM
- IC50 [5]: > 50 µM
- IC50 [6]: > 50 µM

SMILES: CCNC(=O)Nc1nc2nc(NCCCCN(CC)CC)ncc2cc1-c1c(Cl)cccc1Cl
- IC50 [3]: 0.19 µM
- IC50 [6]: 0.25 µM

SMILES: CC(C)(C)NC(=O)Nc1nc2nc(N)ncc2cc1-c1ccccc1
- IC50 [1]: > 50 µM
- IC50 [7]: 3.71 µM
- IC50 [3]: 4.67 µM
- IC50 [8]: 5.53 µM
- IC50 [5]: > 50 µM

SMILES: CC(C)(C)NC(=O)Nc1nc2nc(N)ncc2cc1-c1c(Cl)cccc1Cl
- IC50 [1]: > 50 µM
- IC50 [3]: 1.11 µM
- IC50 [4]: 0.13 µM
- IC50 [5]: 0.22 µM
- IC50 [6]: 0.63 µM

SMILES: CCN(CC)CCCCNc1ncc2cc(-c3c(Cl)cccc3Cl)c(NC(=O)NC(C)(C)C)nc2n1
- IC50 [1]: > 50 µM
- IC50 [3]: 0.31 µM
- IC50 [9]: 0.3 µM
- IC50 [5]: 0.044 µM
- IC50 [6]: 0.45 µM

SMILES: CCN(CC)CCCNc1ncc2cc(-c3c(Cl)cccc3Cl)c(NC(=O)NC(C)(C)C)nc2n1
- IC50 [1]: > 50 µM
- IC50 [2]: 6.2 µM
- IC50 [3]: 0.66 µM
- IC50 [4]: 0.082 µM
- IC50 [6]: 1.8 µM

SMILES: CCNC(=O)Nc1nc2nc(N)ncc2cc1-c1c(Cl)cccc1Cl
- IC50 [1]: > 50 µM
- IC50 [2]: 1.36 µM
- IC50 [3]: 1.3 µM
- IC50 [4]: 0.13 µM
- IC50 [6]: 3.73 µM

SMILES: CN1CCN(CCCNc2ncc3cc(-c4c(Cl)cccc4Cl)c(NC(=O)NC(C)(C)C)nc3n2)CC1
- IC50 [1]: > 50 µM
- half-life [10]: 2.69 h
